Measured values published in US4705777A, “Cationic oligopeptides having microbicidal activity” (priority 1985, dated 1987).

Columns and labels:
[1] = tested on: Staphylococcus aureus 566; assay: Antibacterial activity of rabbit granulocyte peptides (Table III), S. aureus 566; assay type: cell-based; conditions: 50 μg/ml, 20 min, 37° C., 10 mM sodium phosphate buffer pH 7.4
Description: (§1) The procedure parallels that reported in Lehrer et al., Infection and Immunity (1983) 42:10-14. […] The subculture was grown at 37° C. for 4 h with shaking to provide mid-logarithmic phase organisms that were washed twice with buffer by centrifugation (2000×g, 10 min), and then quantitated spectrophotometrically at 620 nm, with reference to previously established CFU/Optical Density relationships. Bacteria were suspended and experiments were performed in 10 mM sodium phosphate buffer, pH 7.4. In some experiments, buffers were supplemented with 0.14 M NaCl ("high" ionic strength). […] In some experiments, 10 mM phosphate buffer with a pH of 5.8 and conductivity of 1.36 mMHO was used. Peptide "stock solutions" were prepared at 500 μg/ml (microbiuret assay) in 0.01% acetic acid, and stored at -20° C. Typically, incubation mixtures contained 1×10^5 bacterial CFU and 5 μg of peptide in 100 μl of buffer. After incubation for 20 min at 37° C., 900 μl of the same buffer was added, and two additional serial tenfold dilutions were made with that buffer. Duplicate 100 μl aliquots from the three serial dilutions were spread over appropriate nutrient agar plates and incubated for 24-72 h to insure full colony development. Killing of microorganisms was expressed as the logarithm10 No /N, where No represented the initial colony count and N represented the colony count after incubation with peptide. There was no significant alteration in colony count when any of the test organisms were exposed to peptide-free buffer for 20 min.

[2] = tested on: Staphylococcus aureus 502A; assay: Antibacterial activity of rabbit granulocyte peptides (Table III), S. aureus 502A; assay type: cell-based; conditions: 50 μg/ml, 20 min, 37° C., 10 mM sodium phosphate buffer pH 7.4
Description: as §1

[3] = tested on: Staphylococcus aureus J.F.; assay: Antibacterial activity of rabbit granulocyte peptides (Table III), S. aureus J.F.; assay type: cell-based; conditions: 50 μg/ml, 20 min, 37° C., 10 mM sodium phosphate buffer pH 7.4
Description: as §1

[4] = tested on: Staphylococcus epidermidis UCLA-622; assay: Antibacterial activity of rabbit granulocyte peptides (Table III), S. epidermidis; assay type: cell-based; conditions: 50 μg/ml, 20 min, 37° C., 10 mM sodium phosphate buffer pH 7.4
Description: as §1

[5] = tested on: Streptococcus pneumoniae Type III; assay: Antibacterial activity of rabbit granulocyte peptides (Table III), S. pneumoniae; assay type: cell-based; conditions: 50 μg/ml, 20 min, 37° C., 10 mM sodium phosphate buffer pH 7.4
Description: as §1

[6] = tested on: Streptococcus agalactiae Type-I-A; assay: Antibacterial activity of rabbit granulocyte peptides (Table III), S. agalactiae Type-I-A; assay type: cell-based; conditions: 50 μg/ml, 20 min; for Bactericidal activity log10 No /N, Streptococcus agalactiae Type 1A, pH 5.8: 10 mM phosphate buffer pH 5.8; for Bactericidal activity log10 No /N, Streptococcus agalactiae Type-I-A: 37° C., 10 mM sodium phosphate buffer pH 7.4; for Bactericidal activity log10 No /N, Streptococcus agalactiae Type 1A, "High" ionic strength: buffer pH 7.4 supplemented with 0.14 M NaCl
Description: as §1

[7] = tested on: Streptococcus agalactiae Type IIIU; assay: Antibacterial activity of rabbit granulocyte peptides (Table III), S. agalactiae Type IIIU; assay type: cell-based; conditions: 50 μg/ml, 20 min, 37° C., 10 mM sodium phosphate buffer pH 7.4
Description: as §1

[8] = tested on: Listeria monocytogenes 450; assay: Antibacterial activity of rabbit granulocyte peptides (Table III), L. monocytogenes; assay type: cell-based; conditions: 50 μg/ml, 20 min; for Bactericidal activity log10 No /N, Listeria monocytogenes 450, pH 5.8: 10 mM phosphate buffer pH 5.8; for Bactericidal activity log10 No /N, Listeria monocytogenes 450: 37° C., 10 mM sodium phosphate buffer pH 7.4; for Bactericidal activity log10 No /N, Listeria monocytogenes 450, "High" ionic strength: buffer pH 7.4 supplemented with 0.14 M NaCl
Description: as §1

[9] = tested on: Pseudomonas aeruginosa PAO 579; assay: Antibacterial activity of rabbit granulocyte peptides (Table III), P. aeruginosa; assay type: cell-based; conditions: 50 μg/ml, 20 min; for Bactericidal activity log10 No /N, Pseudomonas aeruginosa PAO 579, pH 5.8: 10 mM phosphate buffer pH 5.8; for Bactericidal activity log10 No /N, Pseudomonas aeruginosa PAO 579: 37° C., 10 mM sodium phosphate buffer pH 7.4; for Bactericidal activity log10 No /N, Pseudomonas aeruginosa PAO 579, "High" ionic strength: buffer pH 7.4 supplemented with 0.14 M NaCl
Description: as §1

[10] = tested on: Escherichia coli ATCC 29648; assay: Antibacterial activity of rabbit granulocyte peptides (Table III), E. coli; assay type: cell-based; conditions: 50 μg/ml, 20 min, 37° C., 10 mM sodium phosphate buffer pH 7.4
Description: as §1

[11] = tested on: Klebsiella pneumoniae ATCC 13883; assay: Antibacterial activity of rabbit granulocyte peptides (Table III), K. pneumoniae; assay type: cell-based; conditions: 50 μg/ml, 20 min; for Bactericidal activity log10 No /N, Klebsiella pneumoniae ATCC 13883, pH 5.8: 10 mM phosphate buffer pH 5.8; for Bactericidal activity log10 No /N, Klebsiella pneumoniae ATCC 13883: 37° C., 10 mM sodium phosphate buffer pH 7.4; for Bactericidal activity log10 No /N, Klebsiella pneumoniae ATCC 13883, "High" ionic strength: buffer pH 7.4 supplemented with 0.14 M NaCl
Description: as §1

Serratia marcescens = assay: Antibacterial activity of rabbit granulocyte peptides (Table III), S. marcescens; assay type: cell-based; conditions: 50 μg/ml, 20 min, 37° C., 10 mM sodium phosphate buffer pH 7.4
Description: as §1

[12] = tested on: Hemophilus influenzae Type 3A; assay: Antibacterial activity of rabbit granulocyte peptides (Table III), H. influenzae; assay type: cell-based; conditions: 50 μg/ml, 20 min, 37° C., 10 mM sodium phosphate buffer pH 7.4
Description: as §1

[13] = tested on: Bordetella bronchiseptica UCLA-342; assay: Antibacterial activity of rabbit granulocyte peptides (Table III), B. bronchiseptica; assay type: cell-based; conditions: 50 μg/ml, 20 min, 37° C., 10 mM sodium phosphate buffer pH 7.4
Description: as §1

S. albus = assay: Antibacterial action, % killing (Table II), S. albus; assay type: cell-based, Staphylococcus albus; conditions: 50 μg/ml peptide, 10^7 bacterial cells/ml, 20 min, 37°
Description: (§2) To test antibacterial action of the polypeptides, the following protocol was employed. Various species at 10^7 bacterial cells/ml are incubated for 20 min at 37° with 50 μg/ml of the candidate peptide. Colony counts (viable organisms) are made at the outset of the incubation--beforeaddition of the candidate peptide--and after 20 min of incubation with the candidate peptide.

S. aureus 502A = assay: Antibacterial action, % killing (Table II), S. aureus 502A; assay type: cell-based, Staphylococcus aureus; conditions: 50 μg/ml peptide, 10^7 bacterial cells/ml, 20 min, 37°
Description: as §2

L. monocytogenes = assay: Antibacterial action, % killing (Table II), L. monocytogenes; assay type: cell-based, Listeria monocytogenes; conditions: 50 μg/ml peptide, 10^7 bacterial cells/ml, 20 min, 37°
Description: as §2

E. coli = assay: Antibacterial action, % killing (Table II), E. coli; assay type: cell-based, Escherichia coli; conditions: 50 μg/ml peptide, 10^7 bacterial cells/ml, 20 min, 37°
Description: as §2

Ps. aeruginosa = assay: Antibacterial action, % killing (Table II), Ps. aeruginosa; assay type: cell-based, Pseudomonas aeruginosa; conditions: 50 μg/ml peptide, 10^7 bacterial cells/ml, 20 min, 37°
Description: as §2

H. influenzae = assay: Antibacterial action, % killing (Table II), H. influenzae; assay type: cell-based, Haemophilus influenzae; conditions: 50 μg/ml peptide, 10^7 bacterial cells/ml, 20 min, 37°
Description: as §2

Substance	Bactericidal activity log10 No /N, Staphylococcus aureus 566 [1]	Bactericidal activity log10 No /N, Staphylococcus aureus 502A [2]	Bactericidal activity log10 No /N, Staphylococcus aureus J.F. [3]	Bactericidal activity log10 No /N, Staphylococcus epidermidis UCLA-622 [4]	Bactericidal activity log10 No /N, Streptococcus pneumoniae Type III [5]	Bactericidal activity log10 No /N, Streptococcus agalactiae Type 1A, pH 5.8 [6]	Bactericidal activity log10 No /N, Streptococcus agalactiae Type-I-A [6]	Bactericidal activity log10 No /N, Streptococcus agalactiae Type 1A, "High" ionic strength [6]	Bactericidal activity log10 No /N, Streptococcus agalactiae Type IIIU [7]	Bactericidal activity log10 No /N, Listeria monocytogenes 450, pH 5.8 [8]	Bactericidal activity log10 No /N, Listeria monocytogenes 450 [8]	Bactericidal activity log10 No /N, Listeria monocytogenes 450, "High" ionic strength [8]	Bactericidal activity log10 No /N, Pseudomonas aeruginosa PAO 579, pH 5.8 [9]	Bactericidal activity log10 No /N, Pseudomonas aeruginosa PAO 579 [9]	Bactericidal activity log10 No /N, Pseudomonas aeruginosa PAO 579, "High" ionic strength [9]	Bactericidal activity log10 No /N, Escherichia coli ATCC 29648 [10]	Bactericidal activity log10 No /N, Klebsiella pneumoniae ATCC 13883, pH 5.8 [11]	Bactericidal activity log10 No /N, Klebsiella pneumoniae ATCC 13883 [11]	Bactericidal activity log10 No /N, Klebsiella pneumoniae ATCC 13883, "High" ionic strength [11]	Bactericidal activity log10 No /N, Serratia marcescens (Serratia marcescens)	other results
val phe cys thr cys arg gly phe leu cys gly ser gly glu arg ala ser gly ser cys thr ile asn gly val arg his thr leu cys cys arg [NP-5]	0.4 log10	0.2 log10	0.1 log10	0.4 log10	1.9 log10	0.0 log10	0.5 log10	0.0 log10	0.4 log10	0.1 log10	0.5 log10	0.2 log10	0.1 log10	0.7 log10	0.0 log10	0.2 log10	0.1 log10	1.2 log10	0.0 log10	1.2 log10	Bactericidal activity log10 No /N, Hemophilus influenzae Type 3A [12]: 1.2 log10; Bactericidal activity log10 No /N, Bordetella bronchiseptica UCLA-342 [13]: 0.0 log10
val ser cys thr cys arg arg phe ser cys gly phe gly glu arg ala ser gly ser cys thr val asn gly val arg his thr leu cys cys arg arg [NP-4]	0.2 log10	0.1 log10	0.1 log10	0.2 log10	4.3 log10	0.0 log10	0.1 log10	0.0 log10	0.2 log10	0.0 log10	0.1 log10	0.0 log10	0.0 log10	0.2 log10	0.0 log10	0.1 log10	0.3 log10	0.2 log10	0.0 log10	1.3 log10	Bactericidal activity log10 No /N, Hemophilus influenzae Type 3A [12]: 1.3 log10; Bactericidal activity log10 No /N, Bordetella bronchiseptica UCLA-342 [13]: 0.1 log10
val val cys ala cys arg arg ala leu cys leu pro arg glu arg arg ala gly phe cys arg ile arg gly arg ile his pro leu cys cys arg arg [NP-1]	> 4.1 log10	2.3 log10	2.7 log10	> 4.1 log10	3.8 log10	0.1 log10	2.3 log10	0.0 log10	3.9 log10	0.2 log10	2.1 log10	0.1 log10	0.3 log10	> 4.2 log10	0.1 log10	1.9 log10	0.6 log10	3.0 log10	0.1 log10	1.0 log10	% Killing, S. albus (S. albus): B (90-99% killing); % Killing, S. aureus 502A (S. aureus 502A): D (<50% killing); % Killing, L. monocytogenes (L. monocytogenes): A (>99% killing); % Killing, E. coli (E. coli): B (90-99% killing); % Killing, Ps. aeruginosa (Ps. aeruginosa): A (>99% killing); % Killing, H. influenzae (H. influenzae): A (>99% killing); Bactericidal activity log10 No /N, Hemophilus influenzae Type 3A [12]: > 1.1 log10; Bactericidal activity log10 No /N, Bordetella bronchiseptica UCLA-342 [13]: 0.1 log10
